# Measured values as given in patent US20110034441A1, “INDAZOLES AS WNT/B-CATENIN SIGNALING PATHWAY INHIBITORS AND THERAPEUTIC USES THEREOF” (EPITHERIX, LLC, priority 2009, published 2011).
# pIC50: −log10 of the molar value.
# System: Wnt
# Assay: Wnt reporter screening assay: SP5 promoter (TCF/LEF) firefly luciferase in SW480 cells
# Format: cell-based
# Conditions: Homo sapiens; SW480 colon cancer cells with SP5 promoter luciferase reporter; 24 hours after compound addition; normalized to DMSO; read-out: Wnt inhibition, IC50
# From the text: Another screening assay for Wnt activity is described as follows. Reporter cell lines can be generated by stably transducing cells of cancer cell lines (e.g., colon cancer) with a lentiviral construct that include a wnt-responsive promoter driving expression of the firefly luciferase gene.
# Lentiviral constructs can be made in which the SP5 promoter, a promoter having eight TCF/LEF binding sites derived from the SP5 promoter, is linked upstream of the firefly luciferase gene. The lentiviral constructs can also include a hygromycin resistance gene as a selectable marker. The SP5 promoter construct can be used to transduce SW480 cells, a colon cancer cell line having a mutated APC gene that generates a truncated APC protein, leading to de-regulated accumulation of β-catenin.
# Cultured SW480 cells bearing a reporter construct can be distributed at approximately 10,000 cells per well into 384 well multiwell plates. Compounds from a small molecule compound library can then be added to the wells in half-log dilutions using a three micromolar top concentration. A series of control wells for each cell type receive only buffer and compound solvent. Twenty-four hours after the addition of compound, reporter activity for luciferases can be assayed, for example, by addition of the BrightGlo luminescence reagent (Promega) and the Victor3 plate reader (Perkin Elmer). Readings can be normalized to DMSO only treated cells, and normalized activities can then be used in the IC50 calculations.
row,Molecule,pIC50
1,"CCNCc1cncc(-c2ccc3[nH]nc(-c4nc5c(N6CCCC6)cccc5[nH]4)c3c2)c1C [Compound 36, N-((4-methyl-5-(3-(4-(pyrrolidin-1-yl)-1H-benzo[d]imidazol-2-yl)-1H-indazol-5-yl)pyridin-3-yl)methyl)ethanamine]",6.12
2,COc1ccc(S(=O)(=O)N2CCCC(NC(=O)c3ccc4[nH]nc(-c5nc6ccccc6[nH]5)c4c3)C2)cc1 (stereo not drawn) [Compound 11],5.89
3,"O=C(c1ccc2[nH]nc(-c3nc4ccccc4[nH]3)c2c1)N1CCCC1 [Compound 20, (3-(1H-benzo[d]imidazol-2-yl)-1H-indazol-5-yl)(pyrrolidin-1-yl)methanone]",6.22
4,"NC(=O)c1ccc2[nH]nc(-c3nc4ccccc4[nH]3)c2c1 [Compound 28, 3-(1H-benzo[d]imidazol-2-yl)-1H-indazole-5-carboxamide]",6.00
5,"O=C(c1ccc2[nH]nc(-c3nc4ccccc4[nH]3)c2c1)N1CCCCC1 [Compound 26, (3-(1H-benzo[d]imidazol-2-yl)-1H-indazol-5-yl)(piperidin-1-yl)methanone]",< 5.00
6,O=C(NC1CCc2ccccc21)c1ccc2[nH]nc(-c3nc4ccccc4[nH]3)c2c1 (stereo not drawn) [Compound 10],6.00
7,"CCNC(=O)c1cncc(-c2ccc3[nH]nc(-c4nc5ccccc5[nH]4)c3c2)c1 [Compound 44, 5-(3-(1H-benzo[d]imidazol-2-yl)-1H-indazol-5-yl)-N-ethyl nicotinamide]",5.81 to 6.02
8,"N#Cc1ccc2[nH]nc(-c3nc4ccccc4[nH]3)c2c1 [Compound 27, 3-(1H-benzo[d]imidazol-2-yl)-1H-indazole-5-carbonitrile]",< 5.00
9,"O=C(c1ccc2[nH]nc(-c3nc4ccccc4[nH]3)c2c1)N1CCOCC1 [Compound 23, (3-(1H-benzo[d]imidazol-2-yl)-1H-indazol-5-yl)(morpholino) methanone]",< 5.00
10,"CCNCc1cncc(-c2ccc3[nH]nc(-c4nc5ccccc5[nH]4)c3c2)c1C [Compound 31, N-((5-(3-(1H-benzo[d]imidazol-2-yl)-1H-indazol-5-yl)-4-methylpyridin-3-yl)methyl)ethanamine]",6.61
11,"O=C(NCc1ccccc1)c1cncc(-c2ccc3[nH]nc(-c4nc5ccccc5[nH]4)c3c2)c1 [Compound 45, 5-(3-(1H-benzo[d]imidazol-2-yl)-1H-indazol-5-yl)-N-benzylnicotinamide]",5.64 to 5.91
12,CS(=O)(=O)N1CCCC(NC(=O)c2ccc3[nH]nc(-c4nc5ccccc5[nH]4)c3c2)C1 (stereo not drawn) [Compound 7],6.10
13,"Cc1cn(-c2cccc3[nH]c(-c4n[nH]c5ccc(-c6cnccc6C)cc45)nc23)cn1 [Compound 34, 3-(4-(4-methyl-1H-imidazol-1-yl)-1H-benzo[d]imidazol-2-yl)-5-(4-methylpyridin-3-yl)-1H-indazole]",7.34 to 8.00
14,CN1CCCCC1CNC(=O)c1ccc2[nH]nc(-c3nc4ccccc4[nH]3)c2c1 (stereo not drawn) [Compound 5],6.20
15,"CCNCc1cncc(-c2ccc3[nH]nc(-c4nc5c(-c6cccnc6)cccc5[nH]4)c3c2)c1C [Compound 37, N-((4-methyl-5-(3-(4-(pyridin-3-yl)-1H-benzo[d]imidazol-2-yl)-1H-indazol-5-yl)pyridin-3-yl)methyl)ethanamine]",6.62 to 6.70
16,Cc1ccccc1O[C@@H]1CCN(C(=O)c2ccc3[nH]nc(-c4nc5ccccc5[nH]4)c3c2)C1 [Compound 18],5.72
17,"O=C(NC1CCN(Cc2ccccc2)CC1)c1ccc2[nH]nc(-c3nc4ccccc4[nH]3)c2c1 [Compound 19, 3-(1H-benzo[d]imidazol-2-yl)-N-(1-benzylpiperidin-4-yl)-1H-indazole-5-carboxamide]",6.40 to 6.48
18,Cc1ccccc1OC1CCN(C(=O)c2ccc3[nH]nc(-c4nc5ccccc5[nH]4)c3c2)C1 (stereo not drawn) [Compound 14],5.72
19,"CCNCc1cncc(-c2ccc3[nH]nc(-c4nc5ccccc5[nH]4)c3c2)c1 [Compound 38, N-((5-(3-(1H-benzo[d]imidazol-2-yl)-1H-indazol-5-yl)pyridin-3-yl)methyl)ethanamine]",6.63 to 6.91
20,Cc1ccccc1C1CCCN1C(=O)c1ccc2[nH]nc(-c3nc4ccccc4[nH]3)c2c1 (stereo not drawn) [Compound 15],5.52
21,"CN1CCCN(C(=O)c2ccc3[nH]nc(-c4nc5ccccc5[nH]4)c3c2)CC1 [Compound 22, (3-(1H-benzo[d]imidazol-2-yl)-1H-indazol-5-yl)(4-methyl-1,4-diazepan-1-yl)methanone]",5.73
22,Cc1ccc(-n2nc(C(N)=O)c3ccc4[nH]ncc4c32)cc1 [Compound 123],5.91

row,Molecule,pIC50
1,CCNCc1cncc(-c2ccc3[nH]nc(-c4nc5ccc(COC)cc5[nH]4)c3c2)c1C [Compound 33],6.17
2,"CCNCc1cncc(-c2ccc3[nH]nc(-c4nc5c(-c6cccc(C)c6)cccc5[nH]4)c3c2)c1C [Compound 40, N-((4-methyl-5-(3-(4-m-tolyl-1H-benzo[d]imidazol-2-yl)-1H-indazol-5-yl)pyridin-3-yl)methyl)ethanamine]",6.07 to 6.17
3,O=C(c1ccc2[nH]nc(-c3nc4ccccc4[nH]3)c2c1)N1CCCC1c1ccccc1 (stereo not drawn) [Compound 16],5.51
4,"CCNCc1cncc(-c2ccc3[nH]nc(-c4nc5c(-n6cnc(C)c6)cccc5[nH]4)c3c2)c1C [Compound 32, N-((4-methyl-5-(3-(4-(4-methyl-1H-imidazol-1-yl)-1H-benzo[d]imidazol-2-yl)-1H-indazol-5-yl)pyridin-3-yl)methyl)ethanamine]",7.20 to 7.40
5,O=C(NC1Cc2ccccc2C1)c1ccc2[nH]nc(-c3nc4ccccc4[nH]3)c2c1 [Compound 4],6.22
6,"CN1CCN(C(=O)c2ccc3[nH]nc(-c4nc5ccccc5[nH]4)c3c2)CC1 [Compound 25, [3-(1H-benzimidazol-2-yl)-1H-indazole-5-yl]-(4-methyl-piperazin-1-yl)-methanone]",< 5.00
7,"O=C(c1ccc2[nH]nc(-c3nc4ccccc4[nH]3)c2c1)N1CCSCC1 [Compound 24, (3-(1H-benzo[d]imidazol-2-yl)-1H-indazol-5-yl)(thiomorpholino)methanone]",5.10
8,"CCNCc1cncc(-c2ccc3[nH]nc(-c4nc5c(-c6ccccc6C)cccc5[nH]4)c3c2)c1C [Compound 42, N-((4-methyl-5-(3-(4-o-tolyl-1H-benzo[d]imidazol-2-yl)-1H-indazol-5-yl)pyridin-3-yl)methyl)ethanamine]",5.44 to 5.60
9,O=C(NCC1(O)CCCCC1)c1ccc2[nH]nc(-c3nc4ccccc4[nH]3)c2c1 [Compound 12],5.80
10,CN1CCC(CNC(=O)c2ccc3[nH]nc(-c4nc5ccccc5[nH]4)c3c2)C1 (stereo not drawn) [Compound 3],6.24
11,Cc1cc(C)cc(-c2ccc3c(NC(=O)NCC4CC4)n[nH]c3c2)c1 [Compound 48],6.41
12,"CCNCc1cncc(-c2ccc3[nH]nc(-c4nc5c(-c6ccc(C)cc6)cccc5[nH]4)c3c2)c1C [Compound 41, N-((4-methyl-5-(3-(4-p-tolyl-1H-benzo[d]imidazol-2-yl)-1H-indazol-5-yl)pyridin-3-yl)methyl)ethanamine]",6.33 to 6.48
13,CC(C)CC(=O)N1CC2CC1CN2C(=O)c1ccc2[nH]nc(-c3nc4ccccc4[nH]3)c2c1 (stereo not drawn) [Compound 8],6.03
14,"Cc1ccc(CN2CCN(C(=O)c3ccc4[nH]nc(-c5nc6ccccc6[nH]5)c4c3)CC2)cc1 [Compound 21, (3-(1H-benzo[d]imidazol-2-yl)-1H-indazol-5-yl)(4-(4-methylbenzyl)piperazin-1-yl)methanone]",5.28
15,O=C(NC1CCCN(S(=O)(=O)c2ccccc2F)C1)c1ccc2[nH]nc(-c3nc4ccccc4[nH]3)c2c1 (stereo not drawn) [Compound 2],6.30
16,"CCNCc1cncc(-c2ccc3[nH]nc(-c4nc5c(N6CCCCC6)cccc5[nH]4)c3c2)c1C [Compound 35, N-((4-methyl-5-(3-(4-(piperidin-1-yl)-1H-benzo[d]imidazol-2-yl)-1H-indazol-5-yl)pyridin-3-yl)methyl)ethanamine]",6.61 to 6.83
17,CS(=O)(=O)N1CCCC(CNC(=O)c2ccc3[nH]nc(-c4nc5ccccc5[nH]4)c3c2)C1 (stereo not drawn) [Compound 13],5.74
18,O=C(NC1CCCN(S(=O)(=O)c2cccc(F)c2)C1)c1ccc2[nH]nc(-c3nc4ccccc4[nH]3)c2c1 (stereo not drawn) [Compound 9],6.00
19,"O=C(O)c1ccc2[nH]nc(-c3nc4ccccc4[nH]3)c2c1 [Compound 29, 3-(1H-benzimidazol-2-yl)-1H-indazole-5-carboxylic acid]",< 5.00
20,"CCNCc1cncc(-c2ccc3[nH]nc(-c4nc5c(-c6ccccc6)cccc5[nH]4)c3c2)c1C [Compound 39, N-((4-methyl-5-(3-(4-phenyl-1H-benzo[d]imidazol-2-yl)-1H-indazol-5-yl)pyridin-3-yl)methyl)ethanamine]",6.14 to 6.16
21,"CCC(CC)NC(=O)c1ccc2[nH]nc(-c3nc4ccccc4[nH]3)c2c1 [Compound 1, 3-(1H-benzo[d]imidazol-2-yl)-N-(pentan-3-yl)-1H-indazole-5-carboxamide]",6.51 to 6.70
22,CC[C@H](C)[C@@H](CO)NC(=O)c1ccc2[nH]nc(-c3nc4ccccc4[nH]3)c2c1 [Compound 17],6.12

# Same assay, conditions: SW480 colon cancer cells with SP5 promoter luciferase reporter; 24 hours after compound addition; normalized to DMSO; read-out: Wnt inhibition, IC50
row,Molecule,pIC50
1,N-ethyl-4-methyl-5-(3-(4-(4-methyl-1H-imidazol-1-yl)-1H-benzo[d]imidazol-2-yl)-1H-indazol-5-yl)nicotinamide [Compound 43],7.02 to 7.11
